The text below walks through data of US10493169B2, “Use of charge-balanced imaging agents for determining renal function” (Beth Israel Deaconess Medical Center, priority 2009, dated 2019).

Like-named read-outs stand apart in the source and are kept apart here.

Usually half-life stands for the time needed for the level to fall by half in the phase considered. Lower therefore signals fast loss.

The nature of data set [1]: Optical properties of NIR fluorophores in 100% calf serum. It counts as physicochemical. To be noted: 100% calf serum supplemented with 50 mM HEPES, pH 7.4. From the text: After purification to homogeneity, optical properties of the dyes can be measured in 100% calf serum. Absorbance spectrometry (200 to 870 nm) can be performed using a USB2000 fiber optic spectrometer and CHEM2000-UV-VIS light source with cuvette holder (Ocean Optics, Dunedin, Fla.). Fluorescence spectrometry (200 to 1100 nm) can be performed using a HR2000 fiber optic spectrometer, CUV-ALL-UV 4-way cuvette holder (Ocean Optics), and a 250 mW 770 nm laser diode (Electro Optical Components, Santa Rosa, Calif.). Quantum yield can be measured under conditions of matched absorbance and 770 nm laser excitation, using ICG in DMSO (QY=13%) as the calibration standard.
(§1) Table 2 below summarizes the optical and stability properties of each of these dyes in 100% calf serum (supplemented with 50 mM HEPES, pH 7.4).

Data set [2] is described as follows: In vivo biodistribution and clearance of dyes in pigs (FLARE NIR fluorescence imaging). Conditions: for Blood half-lives: IV 40 pmol/g, given in the pig paragraph, species not restated; for uptake in liver and intestines: pigs, IV 40 pmol/g (1.6 μmol).
Description: For in vivo characterization, 40 pmol/g (average 10 nmol) of each dye or conjugate can be injected IV into 250 g Sprague-Dawley rats whose major viscera are surgically exposed. The FLARE™ imaging system can be set to a 760 nm excitation fluence rate of 5 mW/cm2. Simultaneous color video and NIR fluorescence (800 nm) images can be acquired pre-injection, every 1 sec for the first 20 sec then every 1 min for 2 h. Camera acquisition can be held constant (typically 100 msec) and chosen to ensure that all intensity measurements are within the linear range of the 12-bit Orca-AG (Hamamatsu) NIR camera. Blood can be sampled at 0, 1, 2, 5, 10, 15, 30, 60, and 120 min via tail vein. Intensity-time curves for all major organs and tissues can be quantified. The peak fluorescence intensity and time can be determined for each tissue/organ, along with the intensity in each at 1 h post-injection. The experiment can then be repeated in pigs, with measurement of NIR fluorescent intensity of skin and all internal tissues and organs.
All dyes were injected IV into pigs at a dose of 40 pmol/g (1.6 μmol). […] Excitation fluence rate was 5 mW/cm2. Camera integration time was 200 msec. All NIR fluorescence images had identical normalizations.
A short description of data set [3]: In vivo biodistribution and clearance of dyes in rats (FLARE NIR fluorescence imaging). Conditions: IV 40 pmol/g (10 nmol). On the procedure: The dyes were injected IV into rats at a dose of 40 pmol/g (10 nmol). […] Excitation fluence rate was 5 mW/cm2. Camera integration time was 200 msec. All NIR fluorescence images have identical normalizations. B 1=bladder. Li=Liver. In=Intestines.

Data set [4] is described as follows: Stability of dyes in 100% calf serum at 37° C. It counts as in vitro ADME. Conditions: 100% calf serum supplemented with 50 mM HEPES, pH 7.4. On the procedure: as §1
The conditions of data set [5]: in DMSO; cited from earlier work.
A short description of data set [6]: Renal clearance: recovery of dye in urine samples. Conditions: human, healthy individuals, urine over 12 h, read-out: recovery of the pre-determined dose in urine. It counts as in vivo. The method, then: Dye MM-19 with net charge of 0 was administered to three groups of subjects of healthy individuals. One group was administered a pre-determined dose of 0.5 mg; one group was administered a pre-determined dose of 2.5 mg; and one group was administered a pre-determined dose of 5.0 mg. Clearance of the dye was measured by quantitative analysis of urine samples obtained by catheterization every hour for the first four hours followed by samples obtained every two hours for the next 8 hours.

A short description of the next data set: in vivo. To be noted: pig, iv.

For `CC1(C)C(/C=C/C2=C(Oc3ccc(S(=O)(=O)O)cc3)C(=C/C=C3/N(CCCCS(=O)(=O)O)c4ccc(S(=O)(=O)[O-])cc4C3(C)C)/CCC2)=[N+](CCCCCC(=O)O)c2ccc(S(=O)(=O)O)cc21` [CW-800], in data set [1], the “Extinction Coefficient” value was 237,000 M^−1cm^−1, the “Peak Absorbance” value was found to be 786 nm, the “Peak Emission” value amounted to 801 nm and the QY came to 14.2%. Besides, in data set [2], the Blood half-lives amounted to 30.6 min; the “uptake in liver and intestines” value was “very high uptake in pig liver and intestines”. Besides, in data set [3], the “clearance / excretion route” value was “cleared equally by liver and kidneys”; the intestinal signal result was “high intestinal signal”; the “non-specific uptake / background retention in tissues and organs” value is “relatively high retention in skin and other major tissues and organs”. Moreover, the “Stability at 4 h, 37° C.” value in data set [4] stood at 95%.

Consider `CC1(C)C(/C=C/C=C/C=C/C=C2\N(CCCCS(=O)(=O)[O-])c3ccc4ccccc4c3C2(C)C)=[N+](CCCCS(=O)(=O)[O-])c2ccc3ccccc3c21.[Na+]` [ICG], for which, in data set [1], the “Extinction Coefficient” value is 121,000 M^−1cm^−1, the “Peak Absorbance” value is reported as 807 nm, the “Peak Emission” value is listed as 822 nm and the QY worked out at 9.3%. For the same compound, in data set [2], the Blood half-lives is 4.6 min; the “uptake in liver and intestines” value is “very high uptake in pig liver and intestines”. In data set [3], the “clearance / excretion route” value is “eventual excretion into bile” and the liver uptake entry is “rapid uptake by the liver”. Besides, the “Stability at 4 h, 37° C.” value in data set [4] turned out to be 96%. Also, in data set [5], the “QY (calibration standard)” value is listed as 13%.

With `CC1(C)C(/C=C/C2=C(Oc3ccc(CCC(=O)[O-])cc3)C(=C/C=C3/N(CCC[N+](C)(C)C)c4ccc(S(=O)(=O)[O-])cc4C3(C)C)/CCC2)=[N+](CCC[N+](C)(C)C)c2ccc(S(=O)(=O)[O-])cc21` [MM-19], in data set [1], the “Extinction Coefficient” value is listed as 249,000 M^−1cm^−1, the “Peak Absorbance” value was 773 nm, the “Peak Emission” value is 790 nm and the QY was 13.7%. Further, in data set [6] (dose not named in the sentence (groups 0.5, 2.5, 5.0 mg)), the dose excreted was more than 50%. Besides, in data set [6] (predetermined dose of 0.5 mg), the dose excreted is more than 80%. Moreover, the dose excreted in data set [6] (predetermined dose of 2.5 mg) is more than 60%. The compound also came in with a half-life in the data set “in vivo” of 13.4 min. For the same compound, in data set [3], the “clearance / excretion route” value is listed as “rapid renal excretion into urine”; the “equilibration between intravascular and extravascular spaces” value is “rapid equilibration between intravascular and extravascular spaces”; the liver uptake result is listed as “no measurable liver uptake”; the “non-specific uptake / background retention in tissues and organs” value is “extremely low background retention in normal tissues and organs”. Besides, the “Stability at 4 h, 37° C.” value in data set [4] came out at 95%.
